Where “and” joins values, the source holds several entries; their conditions need not be identical. Equal entries are not always repeated. Where two headings read alike, the source gives them in different places.
Assays:
[1] = test system: BJ1 (normal skin fibroblast)
Method: Using specific human cancer cell lines, the anti-proliferative effectiveness of compounds 7a–j was evaluated in an in vitro assay. The anti-cancer activity of these compounds (7a–j) on various cancer cell lines, including PC3 (Prostate cell line), A549 (Lung carcinoma), PACA2 (Pancreatic cancer cell line) and BJ1 (normal skin fibroblast), was investigated in this study using the 3-(4,5-dimethylthiazol-2-yl)-2,5-diphenyltetrazolium bromide (MTT) test.
In the initial screening trial, a single dosage concentration of 100 μg ml^−1 was applied for 48 hours. The cytotoxicity of the treated cells was determined by calculating the cell death percentage (% mortality) as a percentage of untreated cells (Table 2).
Cell viability was tested using the MTT assay, 3-(4,5-dimethylthiazol-2-yl)-2,5-diphenyl-tetrazolium bromide (Bio Basic Canada Inc. Toronto, Canada).[26] Under class II biosafety regulations, the procedures were carried out in a sterile laminar air flow cabinet (Baker, SG403INT; Sanford, ME, USA). Cell lines were obtained from the American type culture collection (ATCC) as a gift from Dr Stig Linder, Karonisca Institute, Sweden. All incubations were performed at 37 °C in a 5% CO2 incubator with a 95% humidified environment (Sheldon, TC2323; Cornelius, OR, USA). 96-well micro titer polypropylene plates were seeded with cells at a density of 10^4 cells per well in complete DMEM media, and the cells were allowed to adhere for 24 hours. After the media was aspirated, the tested compounds were added to the cells in a single dose of 100 μg ml^−1 in DMSO. Each well received 40 μl of MTT salt ([…]) following a 48 hour incubation period. 200 μl of 10% sodium dodecyl sulfate (SDS) was added to each well after the reaction ended, and any formazan crystals that could have been produced were dissolved by two hours of incubator heating to 37 °C. The amount of formazan product was measured at 595 nm using a microplate reader (Bio-Rad Laboratories, model 3350, California, USA) with a reference wavelength of 690 nm, serving as a backdrop. Rather than the drugs under investigation, the medium was applied to the untreated cells (negative control). The examined compounds were dissolved in dimethylsulfoxide (DMSO), and the final concentration in the cells was less than 0.2%. For each compound and the control, the solvent concentration was the same.

[2] = test system: lung cancer cell lines (A549); assay: DNA fragmentation assay (diphenylamine reaction); format: cell-based, human; details: for DNA fragmentation Change: change vs negative control; for DNA fragmentation% (M ± SEM): negative control 12.54 ± 0.45
Method: The DNA fragmentation assay in lung cancer cell lines was performed in accordance with the protocol established by Yawata (1998)[34] with some modifications. […] The low-molecular-weight genomic DNA was extracted as described in Yawata (1998).[34] Approximately 1 × 10^6 cells of each treatment were plated. All the cells (including floating cells) were harvested and washed with Dulbecco's phosphate buffered saline. The cancer cells were lysed with the lysis buffer containing 10 mM Tris (pH 7.4), 150 mM NaCl, 5 mM ethylenediaminetetraacetic acid (EDTA), and 0.5% Triton X-100 for 30 min on ice. Lysates were vortexed and cleared by centrifugation at 10 000 g for 20 min. Fragmented DNA in the supernatant was extracted with an equal volume of a neutral phenol : chloroform : isoamyl alcohol mixture (25 : 24 : 1) and analyzed electrophoretically on 2% agarose gels containing 0.1 μg ml^−1 ethidium bromide.
The lung cancer cell lines (A549) were used to determine the quantitative profile of the DNA fragmentation. […] The cancer cells were lysed in 0.5 ml of lysis buffer containing 10 mM Tris–HCl (pH 8), 1 mM EDTA, and 0.2% Triton X-100 and centrifuged at 10 000 rpm (Eppendorf) for 20 min at 4 °C. The pellets were re-suspended in 0.5 ml of lysis buffer. To the pellets (P) and the supernatants (S), 0.5 ml of 25% tri-chloroacetic acid (TCA) was added and incubated at 4 °C for 24 h. The cells were then centrifuged for 20 min at 10 000 rpm (Eppendorf) at 4 °C and the pellets were suspended in […] of 5% TCA, followed by incubation at 83 °C for 20 min. Subsequently, to each cell sample, […] of diphenylamine (DPA) solution [150 mg DPA in 10 ml glacial acetic acid, […] of sulfuric acid and […] acetaldehyde (16 mg ml^−1)] was added and incubated at room temperature for 24 h (Gibb et al.,[35] 1997). The proportion of the fragmented DNA was calculated from the absorbance values at 600 nm wavelength using the formula:% fragmented DNA = [OD(S)/[OD(S) + OD(P)]] × 100(OD: optical density, S: supernatants, P: pellets).

Row | Compound | (%) Mortality BJ1 (cytotoxicity percentage on normal cells) ([1]; 100 μg ml^−1, 48 hours, MTT) | DNA fragmentation Inhibition% [2] [%] | DNA fragmentation Change [2] | DNA fragmentation% (M ± SEM) [2] | (%) Mortality BJ1 (cytotoxicity percentage on normal cells) ([1]; human, 48 h, 100 μg ml^−1) [%]
1 | COc1ccc(-c2nn(-c3ccccc3)c3nc(=O)c(C)nn23)cc1 [Compound 7g, 3-(4-Methoxyphenyl)-6-methyl-1-phenyl-[1,2,4]triazolo[4,3-b][1,2,4]triazin-7(1H)-one] | 2.8% and 2.8 ± 0.71% | 17.74 | 13.03 | 25.57 ± 0.94% and 25.57 ± 0.94^b % | –
2 | Cc1nn2c(C)nn(-c3ccc([N+](=O)[O-])cc3)c2nc1=O [Compound 7a, 3,6-Dimethyl-1-(4-nitrophenyl)-[1,2,4]triazolo[4,3-b][1,2,4]triazin-7(1H)-one] | 3.5% and 3.5 ± 1.16% | 27.78 | 20.24 | 32.78 ± 1.35% and 32.78 ± 1.35^a % | –
3 | COc1cccc2c1C(=O)c1c(O)c3c(c(O)c1C2=O)C[C@@](O)(C(=O)CO)C[C@@H]3O[C@H]1C[C@H](N)[C@H](O)[C@H](C)O1 [Dox, Doxorubicin, reference compound] | – | 19.69 | 15.84 | – | 1.10 ± 0.52
